# Laboratory results as given in US20060210625A1, “Sustained release of positively charged pharmacologically active molecules from a matrix containing polymers with polarized oxygen atoms” (Shire Laboratories, Inc., priority 2003, published 2006).
# Assay: Viscosity of HPMC K4M solution with trospium chloride (Brookfield viscometer)
# Format: physicochemical
# Details: S18 spindle
# Protocol: Applicants have discovered that a certain interaction occurs between polarized oxygen atom containing-polymers and positively charged molecules, such as trospium chloride, which is exemplified by the dramatic change in viscosity of, for instance, an HPMC K4M solution when a drug in solution is added to it. An HPMC K4M solution was prepared and diluted to 2% by weight (or “w/w”) with either a trospium chloride solution or water. […] Without being bound to any particular theory, it is believed that this interaction leads to a slowed release of the active agent, and thus for the first time controlled release, once-daily formulations of highly water-soluble compounds can be made with relative ease.
# In order to examine the interaction of trospium chloride with HPMC K4M polymer, viscosity of HPMC K4M was measured at a polymer concentration of 2% w/w at room temperature. Also examined was a 2% w/w solution of HPMC K4M containing trospium chloride at a final concentration of 16.7% w/w.
# Viscosity was measured using a Brookfield viscometer fitted with an S18 spindle. Viscosity was measured at two spindle speeds. […] The contribution of the trospium chloride solution viscosity on the viscosity of the HPMC K4M solution is negligible.
smiles,measurement,setting,value
O=C(O[C@H]1C[C@H]2CC[C@@H](C1)[N+]21CCCC1)C(O)(c1ccccc1)c1ccccc1 [trospium chloride],viscosity of the HPMC K4M solution in the presence of the drug as compared to HPMC K4M solution without the drug,"2% w/w HPMC K4M, trospium chloride 16.7% w/w, room temperature, two spindle speeds",more than doubled
same,contribution of the trospium chloride solution viscosity on the viscosity of the HPMC K4M solution,Brookfield viscometer,negligible
